The subject of this data set is CCRIS mutagenicity, Ames/micronucleus/aberration tests. The data set can be described thus: CCRIS mutagenicity studies.

The source made the active and inactive calls. How the calls were made is not given here.

Mutagenic call data for two compounds are collected here from PubChem BioAssay AID1259407 (Chemical Carcinogenesis Research Information System (CCRIS), 2018).

On to `NCCCN1CCN(CCCN)CC1`, for which the mutagenic call by setting is: (Test System: AMES SALMONELLA TYPHIMURIUM, Strain/Indicator: TA98, Metabolic Activation: NONE, Method: PREINCUBATION) “inactive; negative”; (Test System: AMES SALMONELLA TYPHIMURIUM, Strain/Indicator: TA98, Metabolic Activation: RAT LIVER S-9, PHENOBARBITAL AND BETA-NAPHTHOFLAVONE, Method: PREINCUBATION) “inactive; negative”; (Test System: AMES SALMONELLA TYPHIMURIUM, Strain/Indicator: TA100, Metabolic Activation: NONE, Method: PREINCUBATION) “inactive; negative”; (Test System: AMES SALMONELLA TYPHIMURIUM, Strain/Indicator: TA100, Metabolic Activation: RAT LIVER S-9, PHENOBARBITAL AND BETA-NAPHTHOFLAVONE, Method: PREINCUBATION) “inactive; negative”; (Test System: AMES SALMONELLA TYPHIMURIUM, Strain/Indicator: TA102, Metabolic Activation: NONE, Method: PREINCUBATION) “inactive; negative”; (Test System: AMES SALMONELLA TYPHIMURIUM, Strain/Indicator: TA102, Metabolic Activation: RAT LIVER S-9, PHENOBARBITAL AND BETA-NAPHTHOFLAVONE, Method: PREINCUBATION) “inactive; negative”. The mutagenic call was “inactive; negative” (Test System: AMES SALMONELLA TYPHIMURIUM, Strain/Indicator: TA104, Metabolic Activation: NONE, Method: PREINCUBATION); “inactive; negative” (Test System: AMES SALMONELLA TYPHIMURIUM, Strain/Indicator: TA104, Metabolic Activation: RAT LIVER S-9, PHENOBARBITAL AND BETA-NAPHTHOFLAVONE, Method: PREINCUBATION); “inactive; negative” (Test System: AMES SALMONELLA TYPHIMURIUM, Strain/Indicator: TA1535, Metabolic Activation: NONE, Method: PREINCUBATION); “inactive; negative” (Test System: AMES SALMONELLA TYPHIMURIUM, Strain/Indicator: TA1535, Metabolic Activation: RAT LIVER S-9, PHENOBARBITAL AND BETA-NAPHTHOFLAVONE, Method: PREINCUBATION); “inactive; negative” (Test System: AMES SALMONELLA TYPHIMURIUM, Strain/Indicator: TA1537, Metabolic Activation: NONE, Method: PREINCUBATION); “inactive; negative” (Test System: AMES SALMONELLA TYPHIMURIUM, Strain/Indicator: TA1537, Metabolic Activation: RAT LIVER S-9, PHENOBARBITAL AND BETA-NAPHTHOFLAVONE, Method: PREINCUBATION). Also, the mutagenic call (Test System: E.COLI, Strain/Indicator: WP2UVRA/PKM101, Metabolic Activation: NONE, Method: PREINCUBATION) was “inactive; negative”; the mutagenic call (Test System: E.COLI, Strain/Indicator: WP2UVRA/PKM101, Metabolic Activation: RAT LIVER S-9, PHENOBARBITAL AND BETA-NAPHTHOFLAVONE, Method: PREINCUBATION) was “inactive; negative”; the mutagenic call (Test System: E.COLI, Strain/Indicator: WP2UVRA, Metabolic Activation: NONE, Method: PREINCUBATION) is “inactive; negative”; the mutagenic call (Test System: E.COLI, Strain/Indicator: WP2UVRA, Metabolic Activation: RAT LIVER S-9, PHENOBARBITAL AND BETA-NAPHTHOFLAVONE, Method: PREINCUBATION) is “inactive; negative”.
With `CC1=C(/C=C/C(C)=C/C=C/C(C)=C/C=C/C=C(C)/C=C/C=C(\C)C=O)C(C)(C)CCC1`, the mutagenic call runs as follows: (End Point: In vitro chromosomal aberrations, Test System: Primary rat (Fischer, female) hepatocytes, Metabolic Activation: None) “active; positive”; (End Point: In vitro micronucleus, Test System: Primary rat (Fischer, female) hepatocytes, Metabolic Activation: None) “active; positive”; (Test System: AMES SALMONELLA TYPHIMURIUM, Strain/Indicator: TA98, Metabolic Activation: NONE, Method: STANDARD PLATE) “inactive; negative”; (Test System: AMES SALMONELLA TYPHIMURIUM, Strain/Indicator: TA98, Metabolic Activation: RAT, LIVER, S-9, AROCLOR 1254, Method: STANDARD PLATE) “inactive; negative”; (Test System: AMES SALMONELLA TYPHIMURIUM, Strain/Indicator: TA100, Metabolic Activation: NONE, Method: STANDARD PLATE) “inactive; negative”; (Test System: AMES SALMONELLA TYPHIMURIUM, Strain/Indicator: TA100, Metabolic Activation: RAT, LIVER, S-9, AROCLOR 1254, Method: STANDARD PLATE) “inactive; negative”.
